Reference: US20260007684A1, “AMIDE DERIVATIVES FOR INHIBITING NLRP3 AND USES THEREOF” (Ventus Therapeutics U.S., Inc., priority 2023, published 2026)

Tests used:
human NLRP3 [1] = biological target: T1, human NLRP3 (Homo sapiens (Human), UniProt Q96P20); test: Human PBMC NLRP3 Assay (LPS priming, ATP stimulation, cytokine measurement); assay type: cell-based; settings: for IC50: read-out: PBMC IC50
human NLRP3 [2] = biological target: T1, human NLRP3; test: Scintillation Proximity (SPA) NLRP3 Assay: displacement of 3H-MCC950; assay type: binding
[3] = human PBMC, LPS priming, ATP stimulation
[4] = displacement of 3H-MCC950, read-out: SPA IC50

T1 sequence (Q96P20 whole entry): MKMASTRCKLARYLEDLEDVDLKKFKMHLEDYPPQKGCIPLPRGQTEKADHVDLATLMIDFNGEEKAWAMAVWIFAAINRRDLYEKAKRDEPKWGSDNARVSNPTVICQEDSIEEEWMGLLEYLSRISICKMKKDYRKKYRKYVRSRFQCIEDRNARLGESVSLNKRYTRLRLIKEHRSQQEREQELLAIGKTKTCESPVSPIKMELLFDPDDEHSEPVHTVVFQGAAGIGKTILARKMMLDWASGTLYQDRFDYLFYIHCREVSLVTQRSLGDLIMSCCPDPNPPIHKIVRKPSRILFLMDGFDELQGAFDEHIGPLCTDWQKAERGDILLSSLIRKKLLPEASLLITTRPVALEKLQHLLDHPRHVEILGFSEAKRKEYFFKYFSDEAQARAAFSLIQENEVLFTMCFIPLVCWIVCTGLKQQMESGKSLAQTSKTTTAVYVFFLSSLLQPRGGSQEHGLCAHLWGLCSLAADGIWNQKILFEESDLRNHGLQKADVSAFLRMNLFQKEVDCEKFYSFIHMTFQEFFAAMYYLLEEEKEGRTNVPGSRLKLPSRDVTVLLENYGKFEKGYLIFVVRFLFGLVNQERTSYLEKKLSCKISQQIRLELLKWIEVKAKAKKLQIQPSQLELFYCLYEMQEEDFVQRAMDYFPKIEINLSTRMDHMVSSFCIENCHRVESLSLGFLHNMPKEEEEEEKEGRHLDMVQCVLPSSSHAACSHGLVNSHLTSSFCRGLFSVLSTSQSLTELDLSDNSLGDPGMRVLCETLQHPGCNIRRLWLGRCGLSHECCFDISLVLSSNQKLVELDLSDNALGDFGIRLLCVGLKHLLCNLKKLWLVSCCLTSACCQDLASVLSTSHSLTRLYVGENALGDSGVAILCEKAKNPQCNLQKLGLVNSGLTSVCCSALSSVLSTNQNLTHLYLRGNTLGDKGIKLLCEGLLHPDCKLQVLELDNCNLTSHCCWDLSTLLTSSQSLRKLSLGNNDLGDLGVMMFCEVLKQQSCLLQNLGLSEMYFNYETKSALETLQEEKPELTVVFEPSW

| Compound | IC50 (human NLRP3 [1]; [3]) [nM] | IC50 (human NLRP3 [2]; [4]) [nM] | further results |
| --- | --- | --- | --- |
| O=C(N[C@H]1CCCN(c2ccccc2)C1)c1ccc(Cl)cc1 [Comparative Example J2, (S)-4-chloro-N-(1-phenylpiperidin-3-yl)benzamide, reference compound] | – | – | IC50 (human NLRP3 [1]): > 100000 nM |
| C[C@@H]1CCN(c2nnn[nH]2)C[C@H](NC(=O)C2(c3ccc(C(F)(F)F)c(OC(F)F)c3)CC2)C1 (single isomer, unassigned) [54A*] | 10 to 100 | < 1000 | – |
| O=C(N[C@@H]1CCCN(c2nnn[nH]2)C1)c1ccc(Cl)cc1 [Comparative Example G, (R)-N-(1-(1H-tetrazol-5-yl)piperidin-3-yl)-4-chlorobenzamide, reference compound] | – | – | IC50 (human NLRP3 [1]): > 100000 nM |
| C[C@H]1CC[C@H](NC(=O)C2(c3ccc(Cl)cc3O)CC2)CN(c2nnn[nH]2)C1 (single isomer, unassigned) [90B*] | 10 to 100 | < 1000 | – |
| CC1(C)C[C@@H](NC(=O)C2(c3ccc(Cl)cc3O)CC2)CN(c2nnn[nH]2)C1 (single isomer, unassigned) [42A*] | < 10 | < 1000 | IC50 (human NLRP3 [1]): 5.8 nM; IC50 (human NLRP3 [2]; read-out: SPA IC50): 47 nM |
| O=C(N[C@@H]1CCCN(c2nnn[nH]2)C1)C1(c2ccc(Cl)cc2F)CC1 [Compound 105, (R)-N-(1-(1H-tetrazol-5-yl)piperidin-3-yl)-1-(4-chloro-2-fluorophenyl)cyclopropane-1-carboxamide] | > 500 | – | IC50 (human NLRP3 [1]): 850 nM; fold increase in potency as measured by PBMC IC50 (human NLRP3 [1]; relative to Compound 10A): 2.5 fold |
| C[C@@H]1CCN(c2nnn[nH]2)C[C@H](NC(=O)C2(c3ccc(SC(F)(F)F)cc3)CC2)C1 (single isomer, unassigned) [69A*] | 10 to 100 | < 1000 | – |
| O=C(N[C@@H]1CCCN(c2ccccc2)C1)c1ccc(Cl)cc1 [Comparative Example J1, (R)-4-chloro-N-(1-phenylpiperidin-3-yl)benzamide, reference compound] | – | – | IC50 (human NLRP3 [1]): > 100000 nM |
| O=C(N[C@@H]1CC[C@H]2CC[C@@H]1N2c1nnn[nH]1)C1(c2ccc(OC(F)F)cc2)CC1 [Compound 106, N-((1S,2R,5S)-8-(1H-tetrazol-5-yl)-8-azabicyclo[3.2.1]octan-2-yl)-1-(4-(difluoromethoxy)phenyl)cyclopropane-1-carboxamide] | > 500 | – | – |
| O=C(Cc1ccc(Cl)cc1)N[C@@H]1CCCN(c2nnn[nH]2)C1 [Comparative Example H, (R)-N-(1-(1H-tetrazol-5-yl)piperidin-3-yl)-2-(4-chlorophenyl)acetamide, reference compound] | – | – | IC50 (human NLRP3 [1]): 10500 nM |
| Cn1nnnc1N1CCC[C@@H](NC(=O)C2(c3ccc(Cl)cc3)CC2)C1 [Comparative Example F, (R)-1-(4-chlorophenyl)-N-(1-(1-methyl-1H-tetrazol-5-yl)piperidin-3-yl)cyclopropane-1-carboxamide, reference compound] | – | – | IC50 (human NLRP3 [1]): 8400 nM |
| C[C@@H]1CC[C@@H](NC(=O)C2(c3ccc(Cl)cc3)CC2)CN(c2nnn[nH]2)C1 (single isomer, unassigned) [36C*, 1-(4-chlorophenyl)-N-(6-methyl-1-(1H-tetrazol-5-yl)azepan-3-yl)cyclopropane-1-carboxamide] | – | > 100000 | – |
| C[C@@H]1CCN(c2nnn[nH]2)C[C@@H]1NC(=O)C1(c2ccc(Cl)cc2)CC1 [Compound 49A, 1-(4-chlorophenyl)-N-[(3R,4R)-4-methy1-1-(1H-tetrazol-5-yl)-3-piperidyl]cyclopropanecarboxamide] | – | > 100000 | – |
| O=C(N[C@H]1CC[C@@H]2CC[C@H]1N2c1nnn[nH]1)C1(c2ccc(Cl)c(F)c2O)CC1 [76B*, N-((1R,2S,5R)-8-(1H-tetrazol-5-yl)-8-azabicyclo[3.2.1]octan-2-yl)-1-(4-chloro-3-fluoro-2-hydroxyphenyl)cyclopropane-1-carboxamide] | – | 10000 to 50000 | – |
| C[C@H]1C[C@@H]2CC[C@H]([C@@H](NC(=O)C3(c4ccc(C(F)(F)F)cc4)CC3)C1)N2c1nnn[nH]1 [104B*, N-((1R,2S,4R,6S)-4-methyl-9-(1H-tetrazol-5-yl)-9-azabicyclo[4.2.1]nonan-2-yl)-1-(4-(trifluoromethyl)phenyl)cyclopropane-1-carboxamide] | – | – | IC50 (human NLRP3 [2]; SPA IC50, displacement of 3H-MCC950): 10000 to 50000 nM |

More lines, main results first:

| IC50 (human NLRP3 [1]; [3]) [nM] | IC50 (human NLRP3 [2]; [4]) [nM] | Compound | further results |
| --- | --- | --- | --- |
| < 10 | < 1000 | C[C@@H]1CCN(c2nnn[nH]2)C[C@H](NC(=O)C2(c3ccc(C(F)F)cc3O)CC2)C1 (single isomer, unassigned) [30A*, 1-(4-(difluoromethyl)-2-hydroxyphenyl)-N-(5-methyl-1-(1H-tetrazol-5-yl)azepan-3-yl)cyclopropane-1-carboxamide] | – |
| 100 to 500 | < 1000 | C[C@H]1CCN(c2nnn[nH]2)C[C@@H](NC(=O)C2(c3ccc(Cl)c(F)c3O)CC2)C1 (single isomer, unassigned) [18D*, 1-(4-chloro-3-fluoro-2-hydroxyphenyl)-N-(5-methyl-1-(1H-tetrazol-5-yl)azepan-3-yl)cyclopropane-1-carboxamide] | – |
| 10 to 100 | < 1000 | C[C@@H]1CCN(c2nnn[nH]2)C[C@H](NC(=O)C2(c3cc(F)c(C(F)(F)F)cc3F)CC2)C1 (single isomer, unassigned) [7A*, 1-(2,5-difluoro-4-(trifluoromethyl)phenyl)-N-(5-methyl-1-(1H-tetrazol-5-yl)azepan-3-yl)cyclopropane-1-carboxamide] | – |
| 10 to 100 | < 1000 | C[C@@H]1CCN(c2nnn[nH]2)C[C@H](NC(=O)C2(c3ccc(Cl)c(F)c3F)CC2)C1 (single isomer, unassigned) [4A*, 1-(4-chloro-2,3-difluorophenyl)-N-(5-methyl-1-(1H-tetrazol-5-yl)azepan-3-yl)cyclopropane-1-carboxamide] | – |
| 10 to 100 | < 1000 | Cc1ccc(C2(C(=O)N[C@@H]3C[C@H](C)CCN(c4nnn[nH]4)C3)CC2)cc1 (single isomer, unassigned) [71A*] | – |
| < 10 | < 1000 | C[C@@H]1CCN(c2nnn[nH]2)C[C@H](NC(=O)C2(c3ccc(C4CC4)c(F)c3O)CC2)C1 (single isomer, unassigned) [32A*, 1-(4-cyclopropyl-3-fluoro-2-hydroxyphenyl)-N-(5-methyl-1-(1H-tetrazol-5-yl)azepan-3-yl)cyclopropane-1-carboxamide] | – |
| 10 to 100 | < 1000 | C[C@@H]1CCN(c2nnn[nH]2)C[C@H](NC(=O)C2(c3ccc(OC(F)F)cc3F)CC2)C1 (single isomer, unassigned) [3A*] | – |
| 10 to 100 | < 1000 | C[C@H]1CCN(c2nnn[nH]2)C[C@@H](NC(=O)C2(c3ccc(OC(F)F)cc3O)CC2)C1 (single isomer, unassigned) [70D*] | – |
| 100 to 500 | 10000 to 50000 | C[C@H]1CCN(c2nnn[nH]2)C[C@H](NC(=O)C2(c3ccc(Cl)c(F)c3O)CC2)C1 (single isomer, unassigned) [18C*, 1-(4-chloro-3-fluoro-2-hydroxyphenyl)-N-(5-methyl-1-(1H-tetrazol-5-yl)azepan-3-yl)cyclopropane-1-carboxamide] | – |
| 10 to 100 | < 1000 | C[C@@H]1CCN(c2nnn[nH]2)C[C@H](NC(=O)C2(c3ccc(Cl)c(F)c3)CC2)C1 (single isomer, unassigned) [65A*] | – |
| 10 to 100 | < 1000 | C[C@@H]1CCN(c2nnn[nH]2)C[C@H](NC(=O)C2(c3ccc(Cl)cc3Cl)CC2)C1 (single isomer, unassigned) [55A*] | – |
| 10 to 100 | < 1000 | C[C@@H]1CCN(c2nnn[nH]2)C[C@H](NC(=O)C2(c3ccc(C4CC4)cc3)CC2)C1 (single isomer, unassigned) [2A*] | – |
| 10 to 100 | < 1000 | C[C@@H]1CCN(c2nnn[nH]2)C[C@@H](NC(=O)C2(c3ccc(C(F)F)cc3O)CC2)C1 (single isomer, unassigned) [30B*, 1-(4-(difluoromethyl)-2-hydroxyphenyl)-N-(5-methyl-1-(1H-tetrazol-5-yl)azepan-3-yl)cyclopropane-1-carboxamide] | – |
| < 10 | < 1000 | C[C@@H]1CCN(c2nnn[nH]2)C[C@H](NC(=O)C2(c3ccc(OC(F)F)cc3O)CC2)C1 (single isomer, unassigned) [70A*] | – |
| 10 to 100 | < 1000 | C[C@@H]1CCN(c2nnn[nH]2)C[C@@H](NC(=O)C2(c3ccc(C(F)(F)F)c(F)c3O)CC2)C1 (single isomer, unassigned) [31B*, 1-(3-fluoro-2-hydroxy-4-(trifluoromethyl)phenyl)-N-(5-methyl-1-(1H-tetrazol-5-yl)azepan-3-yl)cyclopropane-1-carboxamide] | – |
| 10 to 100 | < 1000 | C[C@@H]1CCN(c2nnn[nH]2)C[C@@H](NC(=O)C2(c3ccc(OC(F)F)cc3O)CC2)C1 (single isomer, unassigned) [70B*] | – |
| 10 to 100 | < 1000 | C[C@@H]1CCN(c2nnn[nH]2)C[C@H](NC(=O)C2(c3ccc(OC(F)F)c(F)c3)CC2)C1 (single isomer, unassigned) [73A*] | – |
| – | 1000 to 10000 | C[C@H]1CCN(c2nnn[nH]2)C[C@H](NC(=O)C2(c3ccc(OC(F)(F)F)cc3O)CC2)C1 (single isomer, unassigned) [62C*] | – |
| – | 10000 to 50000 | C[C@@H]1CCN(c2nnn[nH]2)C[C@@H](NC(=O)C2(c3ccc(OC(F)(F)F)cc3F)CC2)C1 (single isomer, unassigned) [64B*] | – |
| – | 10000 to 50000 | C[C@H]1CCN(c2nnn[nH]2)C[C@@H](NC(=O)C2(c3ccc(OC(F)(F)F)cc3)CC2)C1 (single isomer, unassigned) [57D*] | – |
| – | 1000 to 10000 | Cc1ccc(C2(C(=O)N[C@H]3C[C@H](C)CCN(c4nnn[nH]4)C3)CC2)c(O)c1F (single isomer, unassigned) [74B*] | – |
| – | 10000 to 50000 | C[C@H]1CCN(c2nnn[nH]2)C[C@@H](NC(=O)C2(c3c(F)cc(Cl)cc3F)CC2)C1 (single isomer, unassigned) [72D*] | – |
| – | 10000 to 50000 | C[C@@H]1CCN(c2nnn[nH]2)C[C@@H](NC(=O)C2(c3ccc(C(F)F)cc3)CC2)C1 (single isomer, unassigned) [5B*, 1-(4-(difluoromethyl)phenyl)-N-(5-methyl-1-(1H-tetrazol-5-yl)azepan-3-yl)cyclopropane-1-carboxamide] | – |
